Experimental data reported in PubChem BioAssay AID2060609 (Molecular Pharmacology Branch, DTP, NCI, 2025).

Test system: 855422-203-R-J1-PDC complex spheroids, viability
Assay: Anticancer human tumor 855422-203-R-J1-PDC patient-derived bladder carcinoma cell line growth inhibition [CLK]
Conditions: for IC50: curve of first compound; for viability, T/C: stronger effect = lower value; active means viability on the fitted dose curve at most 10% of control; inactive means the rest
Text: A high-throughput screen of multi-cell type tumor spheroids was designed to identify active combinations of […] and targeted small molecules. Complex spheroids include a stromal component modeled by human endothelial cells (HUVEC) and fibroblasts modeled by human mesenchymal stem cells (MSCs). The concentration ranges selected for each drug and investigational agent were based upon clinically achievable concentrations if the clinical Cmax of the agent was known.
Compounds. The drugs and investigational agents: cirtuvivint (SM08502; NSC835563), CC-671 (NSC850746), vemurafenib (NSC761431), tapotoclax (NSC804041), sotorasib (NSC818433), adagrasib (NSC831453), MRTX-1133 (NSC836407), BAY2416964 (NSC825713), copanlisib (NSC816437), inavolisib (NSC800729), abemaciclib (NSC768073), osimertinib (NSC779217), entinostat (NSC756642), eltanexor (KPT-8602, NSC794443), venetoclax (NSC766270), ceralasertib (NSC777638), bortezomib (NSC756655), olaparib (NSC753686), talazoparib (NSC767125), alisertib (NSC759677), peposertib (NSC802822), gemcitabine (NSC613327), 5-fluorouracil (NSC19893), SN-38 (NSC673596), oxaliplatin (NSC266046), paclitaxel (NSC125973), and doxorubicin (NSC123127), were obtained from the National Cancer Institute (NCI) Developmental Therapeutics Program Chemical Repository. The FDA-approved anticancer drug set is available from the Developmental Therapeutics Program at https://dtp.cancer.gov/organization/dscb/obtaining/available plates.htm. […] The stock solutions were prepared in dimethyl sulfoxide (DMSO, Sigma-Aldrich, St. Louis, MO, cat. D2650), except for the platinum complexes which were prepared in saline (Quality Biological, Gaithersburg, MD, cat. 114-055-101), at 800-fold the tested concentration and stored at -70 degrees C prior to their use. All drugs and investigational agents were tested over a range starting from a high concentration at or near the clinical Cmax and decreasing in half-log increments. If the clinical Cmax for an agent had not been determined, the highest concentration tested was 10 microM.
Cell Culture. All cells were maintained in an incubator at 37 degrees C and 5% CO2 with 95% humidity. The PDC lines were cultured according to standard operating procedures established by the NCI PDMR. Briefly, all PDCs were thawed and cultured in Matrigel-coated flasks prepared with a working solution of 1X Ham's F-12 nutrient mix, without supplementation (Invitrogen, Waltham, MA, cat. 11765054), 100 U/mL penicillin-streptomycin (Invitrogen, cat. 15140122), and 2.5% Matrigel (Corning Inc., Corning, NY, cat. 354248) for the first three passages. The 947758-054-R-J2-PDC line was cultured in 6B/Colon 1A media, which includes advanced DMEM/F-12 (Thermo Fisher Scientific, cat. 12634028), 10 mM HEPES (Thermo Fisher Scientific, cat. 15630080), 1X GlutaMAX supplement (Thermo Fisher Scientific, cat. 35050061), 0.1 mg/mL primocin (InvivoGen, cat. ant-pm-2), 10% defined fetal bovine serum, heat inactivated (HyClone Laboratories Inc., cat. SH30070.03HI), 1.25 mM N-Acetyl-L-cysteine (Sigma-Aldrich, cat. A9165), 10 mM nicotinamide (Sigma-Aldrich, cat. N0636), 1X B-27 supplement (Thermo Fisher Scientific, cat. 17504044), 1X N-2 supplement (Thermo Fisher Scientific, cat. 17502048), and 10 microM Y-27632 dihydrochloride (Tocris Bioscience, cat. 1254). The 876862-298-R-J1-PDC was cultured in 6E media, which includes all 6B/Colon 1A media components plus 50% L-WRN conditioned media (ATCC, cat. CRL-3276), 50 ng/mL recombinant human EGF recombinant protein (hEGF; Thermo Fisher Scientific, cat. PHG0311), 10 ng/mL recombinant human fibroblast growth factor 10 (hGFG-10; PeproTech, cat. 100-26), 1 ng/mL recombinant human fibroblast growth factor 2 (hFGF-2; PeproTech, cat. 100-18B), and 1 µM prostaglandin E2 (PGE2; Tocris, cat. 2296). The 227483-062-R1-J1-PDC line was cultured in Panc media, containing all 6E components except hFGF-2, with the addition of 500 nM SB-431542 (Selleckchem, cat. S1067) and 10 nM gastrin (Tocris, cat. 3006). […]

[1] = second compound 0.0316 µM, first compound 0.0316 µM
[2] = second compound 0.0316 µM, first compound 0.1 µM
[3] = second compound 0.0316 µM, first compound 0.316 µM
[4] = second compound 0.0316 µM, first compound 1 µM
[5] = second compound 0.0316 µM, first compound 3.16 µM
[6] = second compound 0.0316 µM, first compound 10 µM
[7] = second compound 0.1 µM, first compound 0.0316 µM
[8] = second compound 0.1 µM, first compound 0.1 µM
[9] = second compound 0.1 µM, first compound 0.316 µM
[10] = second compound 0.1 µM, first compound 1 µM
[11] = second compound 0.1 µM, first compound 3.16 µM
[12] = second compound 0.1 µM, first compound 10 µM
[13] = second compound 0.316 µM, first compound 0.0316 µM
[14] = second compound 0.316 µM, first compound 0.1 µM
[15] = second compound 0.316 µM, first compound 0.316 µM
[16] = second compound 0.316 µM, first compound 1 µM
[17] = second compound 0.316 µM, first compound 3.16 µM
[18] = second compound 0.316 µM, first compound 10 µM
[19] = second compound 1 µM, first compound 0.0316 µM
[20] = second compound 1 µM, first compound 0.1 µM
[21] = second compound 1 µM, first compound 0.316 µM
[22] = second compound 1 µM, first compound 1 µM
[23] = second compound 1 µM, first compound 3.16 µM
[24] = second compound 1 µM, first compound 10 µM
[25] = second compound 3.16 µM, first compound 0.0316 µM
[26] = second compound 3.16 µM, first compound 0.1 µM
[27] = second compound 3.16 µM, first compound 0.316 µM
[28] = second compound 3.16 µM, first compound 1 µM
[29] = second compound 3.16 µM, first compound 3.16 µM
[30] = second compound 3.16 µM, first compound 10 µM
[31] = second compound 10 µM, first compound 0.0316 µM
[32] = second compound 10 µM, first compound 0.1 µM
[33] = second compound 10 µM, first compound 0.316 µM
[34] = second compound 10 µM, first compound 1 µM
[35] = second compound 10 µM, first compound 3.16 µM
[36] = second compound 10 µM, first compound 10 µM
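Further: spheroids exposed to drugs for seven days before readout.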
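Wherever viability, T/C is given: 100% = DMSO vehicle control wells.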

C=CC(=O)N1CCN(c2nc(=O)n(-c3c(C)ccnc3C(C)C)c3nc(-c4c(O)cccc4F)c(F)cc23)C(C)C1 (centres undefined) + CN1CCN(c2cc(C(=O)Nc3cc4cc(-c5cnn(C)c5)ccc4cn3)ccn2)CC1
inactive: viability, T/C [1] 99% | viability, T/C [2] 110% | viability, T/C [3] 134% | viability, T/C [4] 138% | viability, T/C [5] 169% | viability, T/C [6] 119% | viability, T/C [7] 85.5% | viability, T/C [8] 92.3% | viability, T/C [9] 94.7% | viability, T/C [10] 116% | viability, T/C [11] 113% | viability, T/C [12] 82.1% | viability, T/C [13] 12.1% | viability, T/C [14] 18.2% | viability, T/C [15] 17.9% | viability, T/C [16] 17.6% | viability, T/C [17] 17.6% | viability, T/C [18] 7.91%
> 10 µM: IC50 (second compound 0.0316 µM) | IC50 (second compound 0.1 µM)
active: viability, T/C [19] 0.24% | viability, T/C [20] 0.27% | viability, T/C [21] 0.3% | viability, T/C [22] 0.42% | viability, T/C [23] 0.52% | viability, T/C [24] 2.45% | viability, T/C [25] 0.88% | viability, T/C [26] 0.76% | viability, T/C [27] 2.22% | viability, T/C [28] 1.37% | viability, T/C [29] 1.55% | viability, T/C [30] 1.14% | viability, T/C [31] 0.53% | viability, T/C [32] 0.49% | viability, T/C [33] 0.4% | viability, T/C [34] 0.89% | viability, T/C [35] 0.88% | viability, T/C [36] 1.04%
< 0.0316 µM: IC50 (second compound 0.316 µM) | IC50 (second compound 1 µM) | IC50 (second compound 3.16 µM) | IC50 (second compound 10 µM)

COC1C=CCC(C)C(C)S(=O)(=O)NC(=O)c2ccc3c(c2)N(CC2CCC21)CC1(CCCc2cc(Cl)ccc21)CO3 (centres undefined) + CN1CCN(c2cc(C(=O)Nc3cc4cc(-c5cnn(C)c5)ccc4cn3)ccn2)CC1
active: viability, T/C [6] 7.64% | viability, T/C [12] 7.3% | viability, T/C [13] 5.49% | viability, T/C [14] 8.06% | viability, T/C [15] 8.27% | viability, T/C [16] 8.14% | viability, T/C [17] 9.01% | viability, T/C [18] 3.13% | viability, T/C [19] 0.17% | viability, T/C [20] 0.15% | viability, T/C [21] 0.14% | viability, T/C [22] 0.18% | viability, T/C [23] 0.12% | viability, T/C [24] 0.64% | viability, T/C [25] 0.29% | viability, T/C [26] 0.46% | viability, T/C [27] 0.42% | viability, T/C [28] 0.42% | viability, T/C [29] 0.31% | viability, T/C [30] 0.15% | viability, T/C [31] 0.31% | viability, T/C [32] 0.16% | viability, T/C [33] 0.31% | viability, T/C [34] 0.39% | viability, T/C [35] 0.95% | viability, T/C [36] 0.32%
< 0.0316 µM: IC50 (second compound 0.316 µM) | IC50 (second compound 1 µM) | IC50 (second compound 3.16 µM) | IC50 (second compound 10 µM)
inactive: viability, T/C [1] 89.7% | viability, T/C [2] 104% | viability, T/C [3] 101% | viability, T/C [4] 105% | viability, T/C [5] 110% | viability, T/C [7] 73.2% | viability, T/C [8] 79.6% | viability, T/C [9] 78.4% | viability, T/C [10] 77.5% | viability, T/C [11] 74.4%
5.97 µM: IC50 (second compound 0.0316 µM)
4.81 µM: IC50 (second compound 0.1 µM)
